Measurements: US20250296959A1, “B7-H3 TARGETING PEPTIDES AND CONSTRUCTS THEREOF” (Mariana Oncology Inc., priority 2024, published 2025)
Read-outs that look alike come from different tables or passages of the source. Starred links: 1 amine or outer side, 2 acyl side, 3 side chain; linkers in the order of their positions; H or OH if unused. Positions of bridges follow the written chain, without caps; N, C: chain ends. Non-standard residues stand in square brackets, D forms with d. Residues, ends and D or L forms follow the SMILES beside them. *: point of attachment. X2 = O=C(O)CN1CCN(CC(=O)O)CCN(CC(=O)NCCOCCOCCOCCOCC(=O)*)CCN(CC(=O)O)CC1; Ala(1-CH2CO2H-4-piperidyl) = N[C@@H](CC1CCN(CC(=O)O)CC1)C(=O)O; Ala(piperidin-4-yl) = O=C([C@H](CC1CCN([*:3])CC1)N[*:1])[*:2]; DOTA = O=C(O)CN1CCN(CC(=O)O)CCN(CC(=O)*)CCN(CC(=O)O)CC1; Trp(5-F) = N[C@@H](Cc1c[nH]c2ccc(F)cc12)C(=O)O; Ala(4-THP) = N[C@@H](CC1CCOCC1)C(=O)O; Val(3-OH) = CC(C)(O)[C@H](N)C(=O)O; hCha = N[C@@H](CCC1CCCCC1)C(=O)O; Cha = N[C@@H](CC1CCCCC1)C(=O)O; Tle = CC(C)(C)[C@H](N)C(=O)O; hLeu = CC(C)CC[C@H](N)C(=O)O

Legend:
Calu-6 cell line [1] = assay: Net internalization of [177Lu]Lu-labeled peptide in Calu-6 cells; type: cell-based, Human; details: 1 hour, 37° C., glycine pH 2.5 acid wash
Procedure: (§1) [^177Lu]LuCl3 was received from venders in HCl solution. For every mCi of [^177Lu]LuCl3 added to the reaction vial (1.5 mL Eppendorf vial), ammonium acetate buffer (0.2 M, pH 4.9, 100 μL, containing 1% w/v ascorbic acid and 6% v/v ethanol) and peptide conjugate (1 nmol) was added. The pH of the solution was determined to be approximately 5 by using pH strips. The reaction vial was incubated at 80° C., 700 RPM for 17-20 minutes. A sample from the reaction was analyzed by RP-HPLC using an Agilent Infinity II 1260 HPLC to determine reaction completion and radiochemical purity. HPLC conditions: Waters XBridge BEH C18 Column, 130 Å, 3.5 μm, 4.6 mm×250 mm; mobile phase: Solvent A=water (with 0.1% formic acid), solvent B=acetonitrile (with 0.1% formic acid). Gradients: 25-45% B in 10 minutes, 45-65% B in 12 minutes, 65-90% in 6 minutes at a flow rate of 0.5 mL/minute. Required amounts of the product were formulated in 1% PBSA for cell studies.
(§2) The study was conducted using Calu-6 cell line (Table 8)
(§3) Adherent cell studies: The cells were cultured in appropriate culture media (20 mL) in tissue culture treated T150 flasks at 37° C. and 5% CO2. Adherent cells were detached (60-70% confluent) using 5 mL Versene at 37° C. for 3 minutes. After confirming the viability using countess and count of detached cells using Trypan blue, the cells were centrifuged at 4° C. for 5 minutes (1,000 revolutions per minute). The cell pellet obtained was washed once with PBS and resuspended in 1% PBSA to obtain the desired cell concentration (5 million cells/mL).
Net internalization: The resuspended cells in 300 μl of 1% PBSA and counted in the gamma counter as “bound fraction” were collected in 1.5 mL Eppendorf tube and pelleted. The pelleted cells were incubated with 300 μl of 50 mM Glycine pH=2.5 for 3 minutes and then pelleted discarding the supernatant. This process was repeated one more time. The pelleted cells were washed with 300 μl of cold 1% PBSA and then resuspended in 300 μl 0.3 M NaOH. This was counted in the gamma counter as “internalized fraction”.
(§4) Calu-6 Cells are Human-Derived, Non-Engineered Lung Cancer Cell that Express B7-H3.

Calu-6 cell line [2] = assay: Cell associated (bound) fraction of [177Lu]Lu-labeled peptide in Calu-6 cells; type: cell-based, Human; details: 1 hour, 37° C.
Procedure: as §1, §2, §3
Cell associated fraction: Cells were incubated with 300 μL (0.8 μCi) of the incubation buffer (containing radiolabeled peptide [^177Lu]Lu-test peptide) for 1 hour at 37 C (Table 9). Post incubation, the cells were pelleted and washed 2 times using cold PBS+1% BSA. The supernatant and washes were combined and counted together as “unbound fraction” in a gamma counter. The cells were then resuspended in 300 μL of 1% PBS+1% BSA and counted in the gamma counter as cell associated fraction (or bound fraction).
as §4

human 4lg B7-H3 = target: T1, human 4lg B7-H3 (Homo sapiens, UniProt Q5ZPR3); assay: Affinity determination by surface plasmon resonance (SPR) to 4Ig B7-H3; details: 4Ig B7-H3
T1 sequence (Q5ZPR3 29-534): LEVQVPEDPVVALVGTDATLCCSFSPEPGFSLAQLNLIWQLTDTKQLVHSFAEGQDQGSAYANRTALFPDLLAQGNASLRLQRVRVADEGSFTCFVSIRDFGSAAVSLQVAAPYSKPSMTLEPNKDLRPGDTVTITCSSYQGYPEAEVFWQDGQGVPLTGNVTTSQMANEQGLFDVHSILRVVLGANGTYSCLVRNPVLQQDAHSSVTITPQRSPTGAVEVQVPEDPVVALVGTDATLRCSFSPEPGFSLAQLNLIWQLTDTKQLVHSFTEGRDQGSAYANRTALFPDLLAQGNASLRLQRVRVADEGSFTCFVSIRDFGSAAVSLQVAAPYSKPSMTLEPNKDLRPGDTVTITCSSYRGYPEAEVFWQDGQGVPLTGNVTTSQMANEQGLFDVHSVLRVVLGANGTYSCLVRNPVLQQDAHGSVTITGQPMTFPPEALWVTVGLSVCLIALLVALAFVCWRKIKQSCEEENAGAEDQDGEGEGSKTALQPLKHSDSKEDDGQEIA

[3] = read-out: SPR KD—25° C., 25° C. flow cell temperature

CC(=O)N[C@@H](CCC(C)C)C(=O)N[C@@H](Cc1ccc(O)cc1)C(=O)N[C@H]1CSSC[C@@H](C(=O)N[C@@H](Cc2c[nH]c3ccc(F)cc23)C(=O)N[C@@H](Cc2ccccc2)C(=O)N[C@H](C(=O)N[C@H](CCCCNC(=O)CN2CCN(CC(=O)O)CCN(CC(=O)O)CCN(CC(=O)O)CC2)C(N)=O)[C@@H](C)O)NC(=O)[C@H](Cc2ccc(O)cc2)NC(=O)[C@H](C(C)C)NC(=O)[C@H](CC(=O)O)NC(=O)[C@H](Cc2ccc(O)cc2)NC(=O)[C@H](CCCCN)NC(=O)CNC(=O)[C@H](C(C)C)NC1=O [compound 73, Ac-hLeu-Y-C-V-G-K-Y-D-V-Y-C-5FW-F-Thr-dLys(DOTA)-CONH2] (Ac-[hLeu]YCVGKYDVYC[Trp(5-F)]FT[dK](DOTA)-NH2; disulfide 3-11)
% net internalization (Calu-6 cell line [1]): A (%≤25) | % cell associated fraction (Calu-6 cell line [2]): C (%>50) | Kd (human 4lg B7-H3; [3]): < 1 nM

CC[C@H](C)[C@@H]1NC(=O)[C@@H](NC(=O)[C@H](Cc2ccc(O)cc2)NC(=O)[C@H](CCC(C)C)NC(C)=O)CSSC[C@@H](C(=O)N[C@@H](Cc2c[nH]c3ccc(F)cc23)C(=O)N[C@@H](Cc2ccccc2)C(=O)N[C@H](C(=O)N[C@H](CCCCNC(=O)COCCOCCOCCOCCNC(=O)CN2CCN(CC(=O)O)CCN(CC(=O)O)CCN(CC(=O)O)CC2)C(=O)O)C(C)(C)O)NC(=O)[C@H](Cc2ccc(O)cc2)NC(=O)[C@H](C(C)C)NC(=O)[C@H](CC(=O)O)NC(=O)[C@H](CC2CCOCC2)NC(=O)[C@H](CCCCN)NC(=O)CNC1=O [compound 308, Ac-hLeu-Y-C-Ile-G-K-ThpA-D-V-Y-C-5FW-F-hydroxyVal-dLys(PEG4-DOTA)-COOH] (Ac-[hLeu]YCIGK[Ala(4-THP)]DVYC[Trp(5-F)]F[Val(3-OH)][dK](X2)-OH; disulfide 3-11)
% net internalization (Calu-6 cell line [1]): B (25<%≤50) | % cell associated fraction (Calu-6 cell line [2]): C (%>50) | Kd (human 4lg B7-H3; SPR KD—25° C., 25° C. flow cell temperature): < 1 nM

CC(=O)N[C@@H](CCC(C)C)C(=O)N[C@@H](Cc1ccc(O)cc1)C(=O)N[C@H]1CSSC[C@@H](C(=O)N[C@@H](Cc2c[nH]c3ccc(F)cc23)C(=O)N[C@@H](Cc2ccccc2)C(=O)N2CCC[C@H]2C(=O)N[C@H](CCCCNC(=O)CN2CCN(CC(=O)O)CCN(CC(=O)O)CCN(CC(=O)O)CC2)C(N)=O)NC(=O)[C@H](Cc2ccc(O)cc2)NC(=O)[C@H](C(C)C)NC(=O)[C@H](CC(=O)O)NC(=O)[C@H](Cc2ccc(O)cc2)NC(=O)[C@H](CCCCN)NC(=O)CNC(=O)[C@H](C(C)C)NC1=O [compound 160, Ac-hLeu-Y-C-V-G-K-Y-D-V-Y-C-5FW-F-Pro-dLys(DOTA)-CONH2] (Ac-[hLeu]YCVGKYDVYC[Trp(5-F)]FP[dK](DOTA)-NH2; disulfide 3-11)
% net internalization (Calu-6 cell line [1]): A (%≤25) | % cell associated fraction (Calu-6 cell line [2]): B (25<%≤50) | Kd (human 4lg B7-H3; [3]): < 1 nM

CC(=O)N[C@@H](CCC1CCCCC1)C(=O)N[C@@H](Cc1ccc(O)cc1)C(=O)N[C@H]1CSSC[C@@H](C(=O)N[C@@H](Cc2c[nH]c3ccc(F)cc23)C(=O)N[C@@H](Cc2ccccc2)C(=O)N[C@H](C(=O)N[C@H](CCCCNC(=O)CN2CCN(CC(=O)O)CCN(CC(=O)O)CCN(CC(=O)O)CC2)C(=O)O)C(C)(C)O)NC(=O)[C@H](Cc2ccc(O)cc2)NC(=O)[C@H](C(C)C)NC(=O)[C@H](CC(=O)O)NC(=O)[C@H](CC2CCOCC2)NC(=O)[C@H](CCCCN)NC(=O)CNC(=O)[C@H](C(C)(C)C)NC1=O [compound 368, Ac-hCha-Y-C-Tbg-G-K-ThpA-D-V-Y-C-5FW-F-hydroxyVal-dLys(DOTA)-COOH] (Ac-[hCha]YC[Tle]GK[Ala(4-THP)]DVYC[Trp(5-F)]F[Val(3-OH)][dK](DOTA)-OH; disulfide 3-11)
% net internalization (Calu-6 cell line [1]): A (%≤25) | % cell associated fraction (Calu-6 cell line [2]): B (25<%≤50) | Kd (human 4lg B7-H3; SPR KD—37° C., 37° C. flow cell temperature): < 1 nM

CC(=O)N[C@@H](CCC(C)C)C(=O)N[C@@H](Cc1ccc(O)cc1)C(=O)N[C@H]1CSSC[C@@H](C(=O)N[C@@H](Cc2c[nH]c3ccc(F)cc23)C(=O)N[C@@H](Cc2ccccc2)C(=O)N[C@H](C(=O)N[C@H](CCCCNC(=O)CN2CCN(CC(=O)O)CCN(CC(=O)O)CCN(CC(=O)O)CC2)C(N)=O)[C@@H](C)O)NC(=O)[C@H](Cc2ccc(O)cc2)NC(=O)[C@H](C(C)C)NC(=O)[C@H](CC(=O)O)NC(=O)[C@H](Cc2ccc(O)cc2)NC(=O)[C@H](CCCCN)NC(=O)CNC(=O)[C@H](C(C)(C)C)NC1=O [compound 76, Ac-hLeu-Y-C-Tbg-G-K-Y-D-V-Y-C-5FW-F-Thr-dLys(DOTA)-CONH2] (Ac-[hLeu]YC[Tle]GKYDVYC[Trp(5-F)]FT[dK](DOTA)-NH2; disulfide 3-11)
% net internalization (Calu-6 cell line [1]): A (%≤25) | % cell associated fraction (Calu-6 cell line [2]): C (%>50) | Kd (human 4lg B7-H3; [3]): < 1 nM

CC[C@H](C)[C@@H]1NC(=O)[C@@H](NC(=O)[C@H](Cc2ccc(O)cc2)NC(=O)[C@H](CCC(C)C)NC(C)=O)CSSC[C@@H](C(=O)N[C@@H](Cc2c[nH]c3ccc(F)cc23)C(=O)N[C@@H](Cc2ccccc2)C(=O)N[C@H](C(=O)N[C@H](CCCCNC(=O)CN2CCN(CC(=O)O)CCN(CC(=O)O)CCN(CC(=O)O)CC2)C(=O)O)C(C)(C)O)NC(=O)[C@H](Cc2ccc(O)cc2)NC(=O)[C@H](C(C)C)NC(=O)[C@H](CC(=O)O)NC(=O)[C@H](CC2CCOCC2)NC(=O)[C@H](CC2CCN(CC(=O)O)CC2)NC(=O)CNC1=O [compound 318, Ac-hLeu-Y-C-Ile-G-[Pip(CH2CO2H)Ala]-ThpA-D-V-Y-C-5FW-F-hydroxyVal-dLys(DOTA)-COOH] (Ac-[hLeu]YCIG[Ala(1-CH2CO2H-4-piperidyl)][Ala(4-THP)]DVYC[Trp(5-F)]F[Val(3-OH)][dK](DOTA)-OH; disulfide 3-11)
% net internalization (Calu-6 cell line [1]): A (%≤25) | % cell associated fraction (Calu-6 cell line [2]): B (25<%≤50) | Kd (human 4lg B7-H3; read-out: SPR KD—37° C., 37° C. flow cell temperature): 1 to 10 nM

CC(=O)N[C@@H](CCC(C)C)C(=O)N[C@@H](Cc1ccc(O)cc1)C(=O)N[C@H]1CSSC[C@@H](C(=O)N[C@@H](Cc2c[nH]c3ccc(F)cc23)C(=O)N[C@@H](Cc2ccccc2)C(=O)N[C@H](C(=O)N[C@H](CCCCNC(=O)CN2CCN(CC(=O)O)CCN(CC(=O)O)CCN(CC(=O)O)CC2)C(N)=O)C(C)(C)O)NC(=O)[C@H](Cc2ccc(O)cc2)NC(=O)[C@H](C(C)C)NC(=O)[C@H](CC(=O)O)NC(=O)[C@H](CC2CCCCC2)NC(=O)[C@H](CC2CCNCC2)NC(=O)CNC(=O)[C@H](C(C)C)NC1=O [compound 227, Ac-hLeu-Y-C-V-G-PipAla-CHA-D-V-Y-C-5FW-F-hydroxyVal-dLys(DOTA)-CONH2] (Ac-[hLeu]YCVG[Ala(piperidin-4-yl)][Cha]DVYC[Trp(5-F)]F[Val(3-OH)][dK](DOTA)-NH2; disulfide 3-11)
% net internalization (Calu-6 cell line [1]): B (25<%≤50) | % cell associated fraction (Calu-6 cell line [2]): C (%>50) | Kd (human 4lg B7-H3; [3]): < 1 nM
